Measured values: patent US6087336A, “Peptide derivatives useful in treating autoimmune diseases” (Zeneca Limited, priority 1996, dated 2000)

What was measured:
HLA-DR4Dw4 = target: T1, HLA-DR4Dw4 (Homo sapiens, UniProt P01903+P01911, A100K/A169T/F76Y/I96L/K127E/L162R/M171V/N62H/P40V/Q125Y/R42H/S133A/S149N/S66Y/V115G/V209L/W38E); assay: Test A: purified HLA-DR peptide in vitro binding assay; conditions: compared with the other isolated diastereomer
T1 construct: a cDNA encoding the β chain is cloned into the transfer vector pAcUW1; made in house; host or cells: Sf21 insect cells, double-recombinant baculovirus
Description: Test A: Purified HLA-DR peptide in vitro binding assay. […]. At the end of the incubation period 100 μl of the incubate is transferred to Enzyme Linked lmmunoSorbant Assay (ELISA) plates (Nunc) previously coated with an anti-MHC antibody (L243--American Type Culture Collection (ATCC) HB55 --as described in Lampson and Levy (1980) J. Immunol. 125, 293-299) at a concentration of 10 μg/ml for 1 hour at room temperature and blocked thereafter for 1 hour with 1% bovine serum albumin (BSA) in PBS and 0.05% Tween 20. After a further 1 hour period the unbound peptide is washed away and a 1/4,000 dilution of streptavidin peroxidase (Sigma) in PBS with 0.01% of a suitable detergent such as NP40 (Sigma) added for 2 hours at room temperature. After further washing, tetramethylbenzidene (TMB) substrate solution (1 TMB tablet (Sigma) in 10 mIs of 0.1 M citrate/acetate buffer, pH 6.0 with 36 μl urea hydrogen peroxide (UHPO) (Fluka)) is added to each of the plates. The reaction is stopped by adding 2M sulphuric acid (10 μl per well) and the absorbance read at 450 nm to quantify the amount of peptide bound. The inhibitory activity of peptides is obtained by plotting absorbance against concentration.
The purified HLA-DR4Dw4 may be obtained as follows:
(i) Expression of HLA-DR in the Baculovirus System
The expression of recombinant proteins in insect cells from baculovirus vectors is an established procedure to obtain high yields of recombinant protein [Luckow, V A & Summers, M D, 1988, Biotechnology, 6, 47-551]. To enable the expression of the heterodimeric HLA-DR, eg. HLA-DR4Dw4, from a single recombinant baculovirus vector (as opposed to having separate recombinant viruses for the α and β chains and then doing a co-infection), a double-recombinant baculovirus is constructed which carries both the α and β chains.
A cDNA encoding the sequence of the α polypeptide is cloned into the transfer vector pacYM1 [Matsuura, Y; Possee, R D; Overton, H A & Bishop, D H L, 1987, J. Gen. […] The molecular genetic techniques used to construct the recombinant vectors are likewise readily available in the literature and are most fully described by Sambrook, J; Fritsch, E F & Maniatis T, (1989) [Molecular Cloning. […]
To create the double-recombinant baculovirus, a cDNA encoding the β chain is cloned into the transfer vector pAcUW1 [Weyer, U; Knight, S & Possee, R D, 1990, J. Gen. […] Double-recombinant viruses are detected by spotting insect cells, infected with randomly picked viruses from the transfection, onto membranes and reacting them with a monoclonal antibody, e.g. L243, which specifically recognises the HLA-DR heterodimer. Binding of the antibody to Sf21 insect cells is detected using standard flow cytometry techniques, readily available in the literature. […]

[1] = system: B52.24 murine T cell hybridoma line; assay: Test B: inhibition of T cell activation in vitro; type: cell-based; conditions: compared with the other isolated diastereomer
Source text: Test B: Inhibition of T cell activation in vitro.
. B52.24 was produced by the fusion of lymph node T cells taken from FHA307-320 immunised HLA-DR4Dw4 transgenic mice (International Patent Application, Publication No WO95/03331) with the BW5147 murine T cell lymphoma line (White et al (1989) J. Immunol. 143, 1822) as outlined in Woods et al (1994) J. Exp. Med. 180, 173-181 and following the general methods for the generation of T cell hybridomas given in Current Protocols in Immunology, Volume 2, 7.21.
Inhibitor peptides at concentrations between 100 and 0.1 μM (or lower) were mixed with the antigenic peptide FHA307-320 in either varying concentrations between 100 and 0.1 μM or at a fixed concentration of 10 μM by dilution in RPM1-1640 culture media (Gibco) in a 96-well mictrotitre plate (Nunc) in a final volume of 100 μl. […]
The culture plates containing supernatants to be assayed were left at room temperature to thaw and […] of supernatant was transferred to fresh 96 round bottomed well plates. […] The contents of each plate were harvested onto glass fibre filter mats and the radioactivity measured using a betaplate scintillation counter.

Phv-Ala-Ala-Ala-Lys-Val-III-Ala-Pip-NH2 [more polar diastereomer]
relative potency of diastereomers in Test A (HLA-DR4Dw4): more potent than the less polar diastereomer | relative potency of diastereomers in Test B [1]: more potent than the less polar diastereomer
